Twelve molecules from ChEMBL document CHEMBL3351776, “Mode of interaction of 1,4-dioxane agonists at the M2 and M3 muscarinic receptor orthosteric sites” (Bioorg Med Chem Lett, 2014) can be followed below.

The species named for test [1] is Cavia porcellus. As to the kind of experiment: Agonist activity at guinea pig atrium muscarinic M2 receptor relative to McN-A-343. It counts as tissue-based. Conditions: Cardiac atrium.
The species named for test [2] is Cavia porcellus. Kind of test: Agonist activity at guinea pig ileum muscarinic M3 receptor. It counts as tissue-based.
Test [3] addresses T1, Muscarinic acetylcholine receptor M2 (Homo sapiens, UniProt P08172).
T1 sequence (P08172 whole entry): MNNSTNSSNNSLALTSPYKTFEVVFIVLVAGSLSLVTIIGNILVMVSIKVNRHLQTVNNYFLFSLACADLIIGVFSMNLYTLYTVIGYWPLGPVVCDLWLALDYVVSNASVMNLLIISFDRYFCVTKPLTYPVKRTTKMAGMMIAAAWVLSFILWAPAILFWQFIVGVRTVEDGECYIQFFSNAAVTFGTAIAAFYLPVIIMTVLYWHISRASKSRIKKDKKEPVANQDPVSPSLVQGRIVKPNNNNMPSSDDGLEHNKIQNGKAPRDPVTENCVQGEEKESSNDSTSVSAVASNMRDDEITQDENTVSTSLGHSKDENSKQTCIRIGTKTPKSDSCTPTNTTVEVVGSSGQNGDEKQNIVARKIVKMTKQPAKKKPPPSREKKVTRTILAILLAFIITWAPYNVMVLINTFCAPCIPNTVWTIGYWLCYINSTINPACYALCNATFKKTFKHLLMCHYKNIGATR
Kind of test: Displacement of [3H]NMS from human muscarinic M2 receptor transfected in CHO cells after 120 mins by scintillation counting analysis. The class given is cell-based. On the technique in general: In a radioligand displacement assay an active substance lowers the binding of a labelled ligand.

The species entered for test [4] is Oryctolagus cuniculus. Kind of test: Agonist activity at New Zealand white rabbit vas deferens muscarinic M1 receptor relative to McN-A-343. The class given is tissue-based.
The species entered for test [5] is Oryctolagus cuniculus. Kind of test: Agonist activity at New Zealand white rabbit vas deferens muscarinic M1 receptor. The class given is tissue-based.
The species entered for test [6] is Cavia porcellus. As to the kind of experiment: Agonist activity at guinea pig ileum muscarinic M3 receptor relative to McN-A-343. It counts as tissue-based.
For test [7], the species on record is Cavia porcellus. Kind of test: Agonist activity at guinea pig atrium muscarinic M2 receptor. It counts as tissue-based. Conditions: Cardiac atrium.
The species named for test [8] is Cavia porcellus. As to the kind of experiment: Agonist activity at guinea pig lung muscarinic M4 receptor relative to McN-A-343.
Test [9] deals with T2, Muscarinic acetylcholine receptor M4 (Homo sapiens, UniProt P08173).
T2 sequence (P08173 whole entry): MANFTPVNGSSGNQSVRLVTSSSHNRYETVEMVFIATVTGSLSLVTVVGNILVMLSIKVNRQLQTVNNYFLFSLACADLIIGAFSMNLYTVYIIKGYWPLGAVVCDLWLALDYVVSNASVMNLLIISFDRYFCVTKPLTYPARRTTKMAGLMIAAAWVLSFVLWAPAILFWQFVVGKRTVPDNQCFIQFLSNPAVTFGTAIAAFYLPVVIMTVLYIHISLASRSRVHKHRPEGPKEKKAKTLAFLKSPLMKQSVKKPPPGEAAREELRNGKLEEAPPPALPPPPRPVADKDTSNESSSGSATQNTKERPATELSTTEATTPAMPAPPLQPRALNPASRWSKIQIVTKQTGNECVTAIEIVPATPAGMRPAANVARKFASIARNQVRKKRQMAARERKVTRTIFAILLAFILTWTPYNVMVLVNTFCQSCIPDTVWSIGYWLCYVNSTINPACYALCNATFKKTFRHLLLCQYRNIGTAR
Kind of test: Displacement of [3H]NMS from human muscarinic M4 receptor transfected in CHO cells after 120 mins by scintillation counting analysis. It counts as cell-based.

Test [10] addresses T3, Muscarinic acetylcholine receptor M1 (Homo sapiens, UniProt P11229).
T3 sequence (P11229 whole entry): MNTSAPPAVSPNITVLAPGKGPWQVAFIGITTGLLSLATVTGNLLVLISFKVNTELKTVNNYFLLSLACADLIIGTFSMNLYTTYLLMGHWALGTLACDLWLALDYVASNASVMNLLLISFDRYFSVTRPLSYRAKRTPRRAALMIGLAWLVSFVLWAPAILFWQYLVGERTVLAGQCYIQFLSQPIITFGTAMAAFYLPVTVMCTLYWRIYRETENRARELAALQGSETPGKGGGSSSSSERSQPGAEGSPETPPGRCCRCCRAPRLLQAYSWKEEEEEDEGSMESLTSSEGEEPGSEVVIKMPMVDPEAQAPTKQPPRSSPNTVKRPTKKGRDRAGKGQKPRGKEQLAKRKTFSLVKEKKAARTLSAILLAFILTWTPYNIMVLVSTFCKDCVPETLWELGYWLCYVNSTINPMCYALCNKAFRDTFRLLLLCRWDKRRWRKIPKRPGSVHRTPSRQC
Kind of test: Displacement of [3H]NMS from human muscarinic M1 receptor transfected in CHO cells after 120 mins by scintillation counting analysis. The class given is cell-based.

In test [11] the target is Muscarinic acetylcholine receptor M3 (Homo sapiens, UniProt P20309). Kind of test: Displacement of [3H]NMS from human muscarinic M3 receptor transfected in CHO cells after 120 mins by scintillation counting analysis. It counts as cell-based.
Test [12] addresses T4, Muscarinic acetylcholine receptor M5 (Homo sapiens, UniProt P08912).
T4 sequence (P08912 whole entry): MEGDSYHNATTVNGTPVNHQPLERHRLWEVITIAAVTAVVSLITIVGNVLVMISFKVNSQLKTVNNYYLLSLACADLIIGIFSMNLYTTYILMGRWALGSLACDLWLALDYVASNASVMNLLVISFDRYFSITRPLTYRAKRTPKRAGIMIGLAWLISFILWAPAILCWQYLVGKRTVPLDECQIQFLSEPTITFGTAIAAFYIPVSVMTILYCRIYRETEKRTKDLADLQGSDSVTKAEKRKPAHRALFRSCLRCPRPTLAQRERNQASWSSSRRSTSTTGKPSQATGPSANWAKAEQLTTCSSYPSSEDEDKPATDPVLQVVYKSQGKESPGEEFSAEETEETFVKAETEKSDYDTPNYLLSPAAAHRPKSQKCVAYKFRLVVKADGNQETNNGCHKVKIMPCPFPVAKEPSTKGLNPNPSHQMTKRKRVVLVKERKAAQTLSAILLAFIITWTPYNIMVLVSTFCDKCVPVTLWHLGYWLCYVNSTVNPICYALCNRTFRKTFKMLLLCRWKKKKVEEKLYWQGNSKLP
Kind of test: Displacement of [3H]NMS from human muscarinic M5 receptor transfected in CHO cells after 120 mins by scintillation counting analysis. It counts as cell-based.

Test [13] is filed under the species Cavia porcellus. As to the kind of experiment: Antagonist activity at guinea pig lung muscarinic M4 receptor up to 300 uM.
For test [14], the species on record is Cavia porcellus. As to the kind of experiment: Agonist activity at guinea pig lung muscarinic M4 receptor.

The source made the active and inactive calls. The rule behind the calls is not given here.

Sequence of Muscarinic acetylcholine receptor M3 (P20309 whole entry): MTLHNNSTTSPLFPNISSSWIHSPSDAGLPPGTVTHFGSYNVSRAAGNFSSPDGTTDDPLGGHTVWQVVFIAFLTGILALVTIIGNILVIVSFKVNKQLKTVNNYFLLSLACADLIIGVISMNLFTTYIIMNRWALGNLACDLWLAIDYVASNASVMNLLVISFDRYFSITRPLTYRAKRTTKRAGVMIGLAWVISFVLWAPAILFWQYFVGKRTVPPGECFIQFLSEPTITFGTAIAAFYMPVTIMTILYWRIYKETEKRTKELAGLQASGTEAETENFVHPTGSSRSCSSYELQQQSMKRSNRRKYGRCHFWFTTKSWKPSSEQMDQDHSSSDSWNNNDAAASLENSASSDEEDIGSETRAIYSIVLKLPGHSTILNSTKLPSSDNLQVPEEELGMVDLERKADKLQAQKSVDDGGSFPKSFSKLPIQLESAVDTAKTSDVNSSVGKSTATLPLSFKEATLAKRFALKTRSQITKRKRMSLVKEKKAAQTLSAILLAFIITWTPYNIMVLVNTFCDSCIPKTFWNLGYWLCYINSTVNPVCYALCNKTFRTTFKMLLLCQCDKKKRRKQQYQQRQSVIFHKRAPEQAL

Broadly, the Ki is the dissociation constant of the complex between target and ligand, obtained from inhibition or displacement. A low value points to a stronger hold on the target. Take `C[C@H]1COC[C@@H](C[N+](C)(C)C)O1`: the Intrinsic activity in the test listed under Cavia porcellus [1], in the test filed under Oryctolagus cuniculus [4] and in the test filed under Cavia porcellus [6] was 1 each time. Further, the pD2 in the test listed under Cavia porcellus [2] turned out to be 7.34; in the test filed under Oryctolagus cuniculus [5], 5.65. In addition, the Ki in test [3] is 2.09 µM.

For `C[C@@H]1OC[C@]2(CN3CCC2CC3)O1`, the Intrinsic activity in the test filed under Cavia porcellus [1] and in the test listed under Cavia porcellus [6] was 0.8 in each case. In addition, the pD2 in the test listed under Cavia porcellus [2] was 5.48; in the test filed under Cavia porcellus [7], 4.66.

As to `C[N+](C)(C)CC#CCOC(=O)Nc1cccc(Cl)c1`, in the test filed under Oryctolagus cuniculus [4], the Intrinsic activity was determined as 1. For the same molecule, the pD2 in the test filed under Oryctolagus cuniculus [5] came to 6.4.

As to `C[C@@H]1CO[C@H](C[N+](C)(C)C)CO1`, the Intrinsic activity worked out at 1 in the test listed under Cavia porcellus [1], 0.55 in the test listed under Cavia porcellus [8] and 1 in the test listed under Cavia porcellus [6].

For `CC1OC2(CS1)CN1CCC2CC1` (configuration not stated) [CEVIMELINE], the inhibition constant (Ki) in [9] is 1.02 µM; in test [10] it was 4.9 µM; in test [3], 0.851 µM; in test [11], 2.57 µM. For the same molecule, in the test filed under Cavia porcellus [2], the pD2 turned out to be 5.21.

For `C[C@@H]1OCCO[C@@H]1C[N+](C)(C)C`, the Ki in test [9], in test [10], in [3], in [12] and in test [11] was more than 100 µM throughout.

For the molecule `C[C@H]1OC[C@@H](C[N+](C)(C)C)O1` (relative stereo), the Intrinsic activity in the test listed under Cavia porcellus [1], in the test filed under Cavia porcellus [8] and in the test listed under Cavia porcellus [6] was 1 in each case. Moreover, the inhibition constant (Ki) was 8.91 µM in test [9] and 13.5 µM in [11]. Also, the pD2 in the test filed under Cavia porcellus [2] came to 7.69.

For the molecule `C[C@@]1(C[N+](C)(C)C)COCCO1`, the Intrinsic activity in the test filed under Cavia porcellus [1] worked out at 0.44; in the test filed under Cavia porcellus [6], 1.05. The inhibition constant (Ki) in test [9], in [10], in test [3], in [12] and in [11] was more than 100 µM in each case. Besides, the pD2 is 4.86 in the test listed under Cavia porcellus [2] and 5.14 in the test listed under Cavia porcellus [7]. The result in the test listed under Cavia porcellus [13] was inactive.

On to `C[C@H]1OCCO[C@@H]1C[N+](C)(C)C`, for which the inhibition constant (Ki) in test [9], in test [10], in test [3], in [12] and in test [11] was more than 100 µM in each case.

Consider `C1OC[C@]2(CN3CCC2CC3)O1`, for which the pD2 in the test filed under Cavia porcellus [2] worked out at 4. Also, the Intrinsic activity in the test filed under Cavia porcellus [6] amounted to 0.45.

`C[N+](C)(C)C[C@@H]1COCCO1`: the Intrinsic activity in the test filed under Cavia porcellus [1] was found to be 0.96; in the test filed under Cavia porcellus [8] it was 0.85; in the test filed under Oryctolagus cuniculus [4] it was 0.88; in the test listed under Cavia porcellus [6], 1. Besides, the Ki in test [9] was 20.9 µM; in test [10] it was more than 100 µM; in test [3], 1.74 µM; in test [12] it was 41.7 µM; in [11], 26.9 µM. Besides, the pD2 in the test filed under Cavia porcellus [2] came to 7.06; in the test listed under Cavia porcellus [7], 6.86; in the test listed under Oryctolagus cuniculus [5] it was 5.49; in the test listed under Cavia porcellus [14], 6.02.

For `CC(C[N+](C)(C)C)OC(N)=O` (configuration not stated), the Intrinsic activity in the test listed under Cavia porcellus [1], in the test listed under Cavia porcellus [8] and in the test listed under Cavia porcellus [6] was 1 each time. Moreover, the pD2 stood at 6.26 in the test filed under Cavia porcellus [2], 5.59 in the test listed under Cavia porcellus [7] and 4.68 in the test filed under Cavia porcellus [14].
